{"source": "patent US8841325B2", "about": "“Immunomodulatory compounds for the restoration of vitamin D sensitivity in vitamin D resistant tumor cells” (Celgene Corporation, priority 2009, dated 2014)", "key": {"MCF-7 cells": {"system": "MCF-7 cells", "experiment": "Cell growth by Sulphorhodamine B (SRB) assay, MCF-7", "format": "cell-based", "conditions": "for effect on cell growth: single agent, Thalidomide 0.01-100 μM, CC-4047 and lenalidomide 0.001-10 μM, FIG. 6B", "method": "Cells were seeded in 24 wells plates at a density of 10^4 cells per well and allowed to adhere for 24 hours. […] Each treatment was carried out for up to 7 days, but renewed every 2 days. Cell growth was then determined by Sulphorhodamine B (SRB) assay, measuring absorbance at 550 nm.\nAfter 6 days treatment, cells were seeded in 24 well plates at a density of 1×10^4 cells/well. After 24 h cells were treated with reagents or vehicle for up to six days. Cells were treated for up to 6 days with log doses of Thalidomide (0.1 μM up to 100 μM), pomalidomide and lenalidomide (0 μM up to 10 μM). At the end of each experiment, cells were fixed to the bottom of the well by addition of ice-cold 50% w/v trichloroacetic acid (TCA) to give a final concentration of 10% TCA. Plates were incubated at 4° C. for 30 minutes and then washed with distilled water. Plates were allowed to air-dry at room temperature before staining with 0.4% w/v SRB in 1% v/v acetic acid and incubated for 15 minutes on a shaker. The plates were then extensively washed with 1% acetic acid to remove unbound dye and were again allowed to air-dry at room temperature. Incorporated dye was solubilised with 200 μl […] Tris base. 100 μl aliquots were transferred to a 96 well plate and absorbance at 550 nm was determined"}, "MDA-MB-231 cells [1]": {"system": "MDA-MB-231 cells", "experiment": "Annexin V/PI staining analysed by FACS", "format": "cell-based", "conditions": "for necrosis and apoptosis activation (propidium iodide and Annexin V staining): 1 μM lenalidomide or 100 nM 1,25-D3 alone; for necrosis and apoptosis activation (propidium iodide and Annexin V staining) / apoptosis assessed by Annexin V or PI staining: up to 6 days; for apoptosis assessed by Annexin V or PI staining: single agent: 1 nM compound or 100 nM 1,25 D3 alone", "method": "Cells were seeded into 6 well plates at a density of 2×10^6 cells/well. Cells were treated with 1 μl/mL DMSO (control) or 1 nM 1-oxo-2-(2,6-dioxopiperidin-3-yl)-4-aminoisoindoline and 100 nM 1,25 D3, each alone or in combination for up to 6 days. Medium was removed by EDTA treatment, and cells were washed twice with ice-cold PBS. Cells were then resuspended into the buffer at a dilution of 1×10^6 cells/mL. 10^5 cells were then stained with Annexin V and Propidium Iodide (“PI”). Staining was analyzed by FACS. Results were expressed as the percentage of control Annexin V or PI staining where the control was cells treated with DMSO only. Results were from triplicate wells.\nTo assess the nature of MDA-MB-231 cell death (apoptosis or necrosis) induced by co-treatment of lenalidomide/1, 25-D3 cells were seeded into 25 cm2 flasks at a density of 2×10^6 cells/flask. […] Medium was removed by EDTA treatment and cells were washed twice with ice-cold PBS. Cells were then resuspended into the buffer at a dilution of 1×10^6 cells/ml. 10^5 cells were then stained with Annexin V and Iodure Propidium. Staining was analysed by FACS.\nCells were also treated with 0.1% DMSO as a control. […] Cells treated with 0.1% DMSO were used as a control (day 0). Cell lysates were probed for cleaved-PARP(C-PARP) and total PARP (T-PARP). Data shown are representative of three identical experiments."}, "MDA-MB-231 cells [2]": {"system": "MDA-MB-231 cells", "experiment": "Apoptosis protein array and Western blot (p53, p21, p27, claspin, BCL-2)", "format": "cell-based", "conditions": "for expression of the anti-apoptotic protein Bcl-2: 1 μM lenalidomide or 100 nM 1,25-D3 alone", "method": "Cells were lysed in RIPA buffer containing 1% NP40, 0.5% sodium deoxycholate, 0.1% SDS and PBS and lysates containing 300 μg protein were probed with an R and D apoptosis protein array kit according to the manufacturers instructions (R&D catalogue number ARY009). Spots were visualised using the enhanced chemiluminescence Western blotting detection system (ECL, Amersham, N.J., USA). Densitometric analysis was performed using Adobe Photoshop CS2.\nTo determine the pathways and proteins involved in the increased apoptosis seen with the lenalidomide/1, 25-D3 combination treatment, whole proteins were extracted from cells taken from the different treatments and were used for probing with an apoptosis protein array, according to the manufacturer. FIG. 9 illustrates the effects. […] Cells were also treated with 0.1% DMSO as a control. Cells were lysed with RIPA buffer as described in the materials and methods, and 300 μg of protein from each of the samples was used for probing with the R& D apoptosis array according to the manufacturers instructions. Results are representative of 2 separate arrays performed. The protein array gives a semi quantitative analysis of changes in the key apoptosis and checkpoint pathway proteins. […] All these proteins are well known to be major pro-apoptotic or checkpoint regulatory proteins. […] All theses results were confirmed by Western blot (FIG. 10 (a)) and densitometry plots of the array and western blot bands/dots were carried out to quantitate the changed expression of these proteins (FIG. 10 (b)). Therefore, the increase in pro-apoptotic proteins coupled with a decrease in Bcl-2 may be responsible for the increased apoptosis seen with the combination treatment.\nMore particularly, FIG. 10 illustrates the effects of co-treatment lenalidomide/1, 25-D3 on p53 activation and p21, p27, claspin, and BCL-2 protein expression in MDA-MB-231 cells. […] Cells were also treated with 0.1% DMSO as a control. Whole proteins were extracted and probed for p53 (serine 15 and serine 392), p21, p27, claspin, and BCL-2, with b-actin as a house-keeping protein."}, "breast cancer cell lines": {"system": "breast cancer cell lines", "conditions": "literature (Colston et al.); cited from earlier work"}, "MDA-MB-231 cells [3]": {"system": "MDA-MB-231 cells", "experiment": "Western blot of key signalling proteins (AKT, ERK1/2, VDR)", "format": "cell-based", "conditions": "1 μM lenalidomide co-treatment with 100 nM 1,25-D3, 6 days", "method": "More particularly, FIG. 11 illustrates the effects of co-treatment lenalidomide/1, 25-D3 on expression of key signalling proteins in MDA-MB-231 cells. […] Cells were also treated with 0.1% DMSO as a control. Whole proteins were extracted and probed for total AKT (T-AKT), phosphor-AKT (P-AKT), total ERK1/2 (T-ERK1/2), phospho-ERK1/2 (P-ERK1/2), phosphor-p38 and total p38, VDR and b-actin as a house-keeping protein. Representative blots for the three experiments are shown."}, "MCF-7/VD^R cells [4]": {"system": "MCF-7/VD^R cells", "experiment": "Cell viability by neutral red assay, MCF-7/VD^R", "format": "cell-based", "conditions": "up to 6 days", "excerpt": "(§1) Non-treated cells were used as a control.\nas §1"}, "MCF-7/VD^R cells [5]": {"system": "MCF-7/VD^R cells", "experiment": "BCL-2 expression by immunoblotting, MCF-7/VD^R", "format": "cell-based", "conditions": "1 μM lenalidomide and 100 nM 1,25-D3 alone or in combination, 6 days, FIG. 15", "method": "Cells were also treated with 0.1% DMSO as a control. Whole cells extracts were prepared and analysed by immuoblotting BCL-2 antibody. β-actin was used as a loading control.\nCells were also treated with 0.1% DMSO a control. Whole proteins were extracted and probes for BCL-2. β-actin was used as a loading control."}, "[6]": {"conditions": "1 μM lenalidomide co-treatment with 100 nM 1,25-D3, up to 6 days"}}, "note": "pIC50: −log10 of the molar value. Entries after “also recorded” stand apart in the source; their conditions may differ.", "data": [{"smiles": "C=C1/C(=C\\C=C2/CCC[C@]3(C)[C@@H]([C@H](C)CCCC(C)(C)O)CC[C@@H]23)C[C@@H](O)C[C@@H]1O", "note": "[1,25-D3, 1α,25-dihydroxyvitamin D3]", "values": [{"measurement": "inhibition of growth", "setting": "MCF-7 cells; 100 nM 1,25-D3 alone, up to 6 days, FIG. 7B", "value": 30, "unit": "%"}, {"measurement": "pIC50", "setting": "MCF-7 cells; 1,25 D3 alone, read-out: dose giving IC50 inhibition", "value": 7.00}, {"measurement": "necrosis and apoptosis activation (propidium iodide and Annexin V staining)", "setting": "MDA-MB-231 cells [1]; FIG. 8B", "value": "no effects"}, {"measurement": "apoptosis assessed by Annexin V or PI staining", "setting": "MDA-MB-231 cells [1]; FIG. 5", "value": "no significant increase in apoptosis"}, {"measurement": "expression of the anti-apoptotic protein Bcl-2", "setting": "MDA-MB-231 cells [2]; up to 6 days", "value": "does not affect"}, {"measurement": "IC50 values", "setting": "breast cancer cell lines", "value": "in the nM region"}]}, {"smiles": "Nc1cccc2c1CN(C1CCC(=O)NC1=O)C2=O", "note": "(stereo not drawn) [Lenalidomide, 1-oxo-2-(2,6-dioxopiperidin-3-yl)-4-aminoisoindoline]", "values": [{"measurement": "effect on cell growth", "setting": "MCF-7 cells; up to 6 days", "value": "do not Affect"}, {"measurement": "effect on cell growth", "setting": "MCF-7 cells; up to 6 days, listed as lenalidomide", "value": "no effect"}, {"measurement": "apoptosis assessed by Annexin V and PI staining", "setting": "MDA-MB-231 cells [1]; 1 nM compound in combination with 100 nM 1,25 D3, up to 6 days, FIG. 5", "value": "significant increase in apoptosis"}, {"measurement": "Annexin V staining", "setting": "MDA-MB-231 cells [1]; 1 μM lenalidomide co-treatment with 100 nM 1,25-D3, up to 6 days, FIG. 8B", "value": "Annexin V staining was observed"}, {"measurement": "necrosis and apoptosis activation (propidium iodide and Annexin V staining)", "setting": "MDA-MB-231 cells [1]; FIG. 8B", "value": "no effects"}, {"measurement": "apoptosis assessed by Annexin V or PI staining", "setting": "MDA-MB-231 cells [1]; FIG. 5", "value": "no significant increase in apoptosis"}, {"measurement": "BCL-2 expression", "setting": "MDA-MB-231 cells [2]; [6]", "value": "inhibits BCL-2 expression; also recorded: abolished by the combination"}, {"measurement": "p21, p27 and claspin expression", "setting": "MDA-MB-231 cells [2]; [6]", "value": "induces activation"}, {"measurement": "p53 activation (phosphorylation of serine 15 and serine 392)", "setting": "MDA-MB-231 cells [2]; [6]", "value": "induces p53 activation"}, {"measurement": "p53 activation (phosphorylation of serine 15 and serine 392)", "setting": "MDA-MB-231 cells [2]; 1 μM lenalidomide only, up to 6 days", "value": "induces p53 activation"}, {"measurement": "expression of the anti-apoptotic protein Bcl-2", "setting": "MDA-MB-231 cells [2]; up to 6 days", "value": "does not affect"}, {"measurement": "proapoptotic protein claspin", "setting": "MDA-MB-231 cells [2]; combination of lenalidomide and 1,25D3 versus either agent alone", "value": "upregulated by the combination, but not with either agent alone"}, {"measurement": "proapoptotic proteins P21, P27 and P53S392", "setting": "MDA-MB-231 cells [2]; lenalidomide in combination with vitamin D", "value": "upregulated"}, {"measurement": "proapoptotic proteins P21, P27 and P53S392", "setting": "MDA-MB-231 cells [2]; lenalidomide on its own", "value": "upregulated"}, {"measurement": "AKT and ERK1/2 activation and VDR protein expression", "setting": "MDA-MB-231 cells [3]", "value": "No Effect"}, {"measurement": "differences in viability", "setting": "MCF-7/VD^R cells [4]; lenalidomide 0 μM up to 10 μM, FIG. 13, p>0.05", "value": "No significant differences"}, {"measurement": "differences in viability", "setting": "MCF-7/VD^R cells [4]; lenalidomide 0.01-1 μM alone or in combination with 1,25-D3 0-1000 nM, FIG. 14, p>0.05", "value": "No significant differences"}, {"measurement": "effects on BCL-2 expression", "setting": "MCF-7/VD^R cells [5]", "value": "no effects"}]}]}
